Patent US20250339445A1, “Modulators of Orphan Nuclear Receptors for Treating Pancreatitis, Glioblastoma, Sarcopenia and Stroke” (Emory University, priority 2020, published 2025)

Columns and labels:
FGF21 = FGF21 mRNA expression in 266-6 murine acinar cells (RT-qPCR); assay type: cell-based; details: 266-6 cells
Procedure: Using one of these models, RT-qPCR analysis of FFG21 mRNA expression was performed in 266-6 murine acinar cells after 6 hours treatment of DMSO/different doses of SR1078 (commercial ROR-α agonist). The statistical significance was calculated relative to DMSO and was determined by Student's t test (two-tailed). Values in graphs are mean±SD. *p<0.05, **p<0.01, ***p<0.001, ****p<0.0001.

[1] = tested on: peripheral and the central benzodiazepine receptors; details: prediction later experimentally proven; cited from earlier work
[2] = tested on: high-fat-fed C57BL/6 mice; experiment: High-fat-diet-fed C57BL/6 mice treated with Compound 1 and/or antagomiR-122; assay type: in vivo; details: 50% HFD; Compound 1 7.5 mg/kg i.p. twice a week, antagomiR once a week, 3 weeks
Procedure: C57BL/6 mice were fed a 50% high fat diet (HFD) for four weeks. The control cohort received three hydrodynamic tail vein injections of a 5 μg antagomiR-control and six i.p injections of saline over three weeks. A second cohort was hydrodynamic tail vein injected with 5 μg antagomiR-122 (the reverse complement that inhibits activity of miR-122) three times and i.p injections of saline six times over three weeks. A third cohort was injected i.p. with Compound 1 (7.5 mg/kg) twice a week plus antagomiR-control once a week over the course of 3 weeks. The final cohort was injected i.p. with Compound 1 (7.5 mg/kg) twice a week plus antagomiR-122 injections once a week over the course of 3 weeks.
Male C57BL/6J mice, 7 to 8 weeks old, were housed randomly in standard cages and were fed a HFD, or atherogenic diet (consisting 1% Chol and 0.5% cholic acid, see also Table 6). All mice had free access to water during the experimental period. During the feeding period body weight was monitored every 3 days. In the HFD experiment, after 4 or 6 weeks, the resultant obese mice were treated with antagomiR-122 (5 μg/mouse once a week for 3 weeks), or i.p. injected with Compound 1 (RORα agonist, 7.5 mg/kg twice a week for 3 weeks; or 15 mg/kg 3 times a week for 3 weeks). The obese control (HFD) group was administered only saline with DMSO and antagomiR-control. After 3 weeks of treatment mice were sacrificed and livers were taken for RNA-seq analysis. Livers, white adipose, and skeletal muscle tissues were frozen in liquid nitrogen or in optimum cutting temperature embedded frozen blocks, for further RNA and histologic analysis. In the atherogenic diet experiment mice were treated with 15 mg/kg Compound 1 after 3 weeks with the diet. After 3.5 weeks of treatment, mice were sacrificed, and the livers were frozen in liquid nitrogen or in optimum cutting temperature embedded frozen blocks. Plasma was collected from atherogenic diet-fed mice and saved in −20° C. for ALT and AST analysis using the Reflotron® Analyzer and test-strips (Roche).
In the HFD experiment, after 4 or 6 weeks, the resultant obese mice were treated with antagoMIR122 (5 μg/mouse once a week for 3 weeks), or i.p. injected with Compound 1 (RORα agonist, 7.5 mg/kg twice a week for 3 weeks; or 15 mg/kg 3 times a week for 3 weeks). The obese control (HFD) group was administered only saline with DMSO and antagomiR-control.
Mice were fed with a 50% HFD and after 4 weeks, when fatty liver was already established, they were treated with Compound 1, antagoMIR122 or both compounds together for an additional 3 weeks. […] The weighing of mice began at week 3, one week before treatments were initiated. […] The liver weight of the mice was in accordance with their body weight.

MIR122 = experiment: AntagoMIR122 treatment of chow or HFD fed mice; assay type: in vivo, C57BL/6 mice; details: for MIR122 levels in plasma, liver and white adipose tissue: hydrodynamic tail vein injection, 5 μg/mouse once a week
Procedure: C57BL/6 mice, 7 to 8 weeks old, were fed chow or 50% HFD, consisting of 50% Fat, 20% Sucrose, 10% Fructose, 1.25% Chol) (Envigo, TD.150235) for 4 weeks. In experiments of miR-122 repression by antagomiR, mice were hydrodynamic tail vain injected with antagomiR-122 or antagomiR-control (5 μg/mouse in 1.5 mL saline) once a week for 4 weeks and were still fed HFD or chow diet. After 4 weeks of injections mice were sacrificed and the livers, white adipose, and skeletal muscle tissues were frozen in liquid nitrogen or in optimum cutting temperature embedded frozen blocks, for further RNA and histologic analysis. AntagomiRs were obtained from Sigma-Aldrich (St Louis, MO); see Table 5.
C57BL/6 mice, 7 to 8 weeks old, were fed chow or 50% HFD, consisting of 50% Fat, 20% Sucrose, 10% Fructose, 1.25% Cholesterol) (Envigo, TD.150235) for 4 weeks. In experiments of MIR122 repression by antagomiR, mice were hydrodynamic tail vain injected with antagoMIR122 or antagomiR-control (5 μg/mouse in 1.5 mL saline) once a week for 3 weeks and were still fed HFD or chow diet. After 3 weeks of injections mice were sacrificed and the livers, gonadal white adipose, and skeletal muscle tissues were frozen in liquid nitrogen or in optimum cutting temperature embedded frozen blocks, for further RNA and histologic analysis. AntagomiRs were obtained from Sigma-Aldrich (St Louis, MO).

RORα = target: T1, RORα (Homo sapiens, UniProt P35398); experiment: RORα activity by luciferase reporter (miR-122 promoter) in Huh-7 cells; assay type: cell-based; set-up: MIR122 promoter activity compared with SR1078: dose or concentration left out as unconfirmed; details: wild type and mutant RORA
T1 construct: endogenous in cells; host or cells: Huh-7 (Huh7) human hepatocellular carcinoma cells
T1 sequence (P35398 1-523): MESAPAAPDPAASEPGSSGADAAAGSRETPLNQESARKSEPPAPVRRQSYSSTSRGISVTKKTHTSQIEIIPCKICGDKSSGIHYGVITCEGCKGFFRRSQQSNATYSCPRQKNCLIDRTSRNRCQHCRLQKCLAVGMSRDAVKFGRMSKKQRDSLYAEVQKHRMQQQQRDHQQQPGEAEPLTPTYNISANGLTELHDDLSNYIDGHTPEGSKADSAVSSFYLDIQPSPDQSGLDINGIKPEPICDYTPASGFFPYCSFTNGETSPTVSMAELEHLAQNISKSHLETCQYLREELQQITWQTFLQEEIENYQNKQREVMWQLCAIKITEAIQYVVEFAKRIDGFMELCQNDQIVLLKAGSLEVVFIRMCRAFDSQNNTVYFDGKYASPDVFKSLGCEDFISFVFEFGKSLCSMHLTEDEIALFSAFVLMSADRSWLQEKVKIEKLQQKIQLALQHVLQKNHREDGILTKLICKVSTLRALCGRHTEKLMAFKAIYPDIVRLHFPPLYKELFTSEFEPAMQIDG
Procedure: Huh-7 cells were transfected with a luciferase reporter plasmid containing the miR-122 promoter (extends to −900 from the transcription start site) with intact wild-type (WT) RORα response element (RORE) or mutated RORE (mut). The cells were treated with Compound 1 one day (24 hours) post-transfection at the indicated concentrations. Luciferase expression was measured after 24 hours of treatment and normalized to Renilla Luciferase activity expressed from a co-transfected pRL plasmid. The pRL Vector, which provides constitutive expression of Renilla luciferase, was used in combination with a firefly luciferase vector to co-transfect cells. Expression of Renilla luciferase provides an internal control value to which expression of the experimental firefly luciferase reporter gene may be normalized.
Luciferase assay. For Luciferase assays, cells grown in 24 well plates were co-transfected with a luciferase reporter plasmid (50 ng) and 1 ng of Renilla Luciferase vector (PRL, Promega) using the TransIT-LT 1 (Mirus) transfection reagent (MIR 2300, Madison, WI). Firefly and Renilla luciferase activity was assessed using the Dual Luciferase Reporter Assay system (Promega). Readings were taken in triplicates on a Mithras LB 940 Luminometer (Berthold Technologies). […]
Following transfections, the cells were lysed with passive lysis buffer (Cat #E1941; Promega), shaking for 20 min at RT and transferred into appropriate 96-well plate. Firefly and Renilla luciferase activity was assessed using the Dual Luciferase Reporter Assay system (Cat #E1910; Promega) on a luminometer Mithras 2000 (Centro XZ, LB960, Berthold Technologies, Bad Wildbad, Germany). […] Readings were taken in triplicate.
Following transfections, the cells were lysed with passive lysis buffer (Cat #E1941; Promega), shaking for 20 min at room temperature (RT) and transferred into the appropriate 96-well plate. Firefly and Renilla luciferase activity was assessed using the Dual Luciferase Reporter Assay system (Cat #E1910; Promega) on a luminometer Mithras 2000 (Centro XZ, LB960, Berthold Technologies, Bad Wildbad, Germany). […] Readings were taken in triplicates. […]
After transfections, the cells were lysed with passive lysis buffer (catalog no. E1941, Promega), shaken for 20 minutes at room temperature, and transferred into the appropriate 96-well plate. Firefly and Renilla luciferase activity was assessed using the Dual Luciferase Reporter Assay system (catalog no. E1910, Promega) on a luminometer Mithras 2000 (Centro XZ, LB960; Berthold Technologies, Bad Wildbad, Germany). […] Readings were taken in triplicate.

With O=C(Nc1ccc(C(O)(C(F)(F)F)C(F)(F)F)cc1)c1ccc(C(F)(F)F)cc1 [SR1078] the “Fgf21 expression in acinar cells” value (FGF21; 6 hours treatment) was “increases Fgf21 expression” and the “Concentration of optimal effect on Fgf21 expression” value (FGF21; 6 hours, effect decreasing at 20 and 40 μM) was 10 micromolar (μM).

For CC(C)=CCC/C(C)=C/CC/C(C)=C/CN1C(=O)c2cccc(O)c2Nc2c(O)cc(O)cc21 [Diazepinomicin], the “Predicted CNS activity (Gourdeau et al. 2008)” value [1] is listed as “predicted to be CNS inactive”.

With “antagomiR-122: MIR122 antagonist; 2′-O Me-modified, phosphorothioate, cholesterol-linked reverse complement that inhibits activity of miR-122 (antisense ACAAACACCAUUGUCACACUCCA; all 2'-O-methyl, backbone not given here; phosphorothioate linkages and cholesterol conjugate, further chemistry not fully specified)” the Body weight [2] was “highest increase in weight”, the Mice weight (MIR122; HFD mice) was “increased significantly” and the “Liver fat droplets, total TG liver content and muscle TG levels” value (MIR122; HFD-fed mice) was “increase”. For the same compound, the “MIR122 levels in plasma, liver and white adipose tissue” value (MIR122) was “significantly reduced” and the “MIR122 levels in plasma, liver and white adipose tissue” value (MIR122; listed as antagoMIR122) was “reduced significantly”.

In the case of O=C1Nc2cc(C(=O)N3CCC(Cc4ccccc4)CC3)ccc2Nc2ccccc21 [Compound 68], the “MIR122 promoter activity compared with SR1078” value (RORα) is reported as “more potent than the commercial synthetic RORA agonist SR1078”.
